pIC50: −log10 of the molar value.

This is an account of results in ChEMBL document CHEMBL5725270, “Substituted imidazopyridazines” (2016).

The test is described as follows: Time-Resolved Fluorescence Resonance Energy Transfer (TR-FRET) Assay: The human kinase Mps-1 phosphorylates a biotinylated substrate peptide. Detection of the phosphorylated product is achieved by time-resolved fluorescence resonance energy transfer (TR-FRET) from Europium-labelled anti-phospho-Serine/Threonine antibody as donor to streptavidin labelled with cross-linked allophycocyanin (SA-XLent) as acceptor. Compounds are tested for their inhibition of the kinase activity.N-terminally GST-tagged human full length recombinant Mps-1 kinase (purchased from Invitrogen, Karslruhe, Germany, cat. no PV4071) was used. […] The concentration of Mps-1 in the assay was adjusted to the activity of the enzyme lot and was chosen appropriate to have the assay in the linear range, typical enzyme concentrations were in the range of about 1 nM (final conc. in the 5 ul assay volume).
As for `Cc1cc(-c2cnc3c(NCCC(F)(F)F)cc(C4(c5cccc(F)c5)CC4)nn23)ccc1C(=O)NC1CC1`, the pIC50 was 9.05.

Turning to `COc1cccc(C(=O)c2cc(NCCC(F)(F)F)c3ncc(-c4ccc(C(=O)NC5CC5)c(C)c4)n3n2)c1`, the pIC50 is 9.30.

`C=C(c1cccc(OC)c1)c1cc(NCCC(F)(F)F)c2ncc(-c3ccc(C(=O)NC4CC4)c(C)c3)n2n1`: the pIC50 is 9.10.

As for `Cc1cc(-c2cnc3c(NCCC(F)(F)F)cc(C(C)(O)c4cccc(F)c4O)nn23)ccc1C(=O)NC1CC1` (configuration not stated), the pIC50 was 9.52.

Take `Cc1cc(-c2cnc3c(NCCC(F)(F)F)cc(C(F)(F)c4cc(F)ccc4F)nn23)ccc1C(=O)NC1CC1`: the pIC50 was 9.30.

On to `C=C(c1cc(NCCC(F)(F)F)c2ncc(-c3ccc(C(=O)NC4CC4)c(C)c3)n2n1)c1cc(F)ccc1F`, for which the negative-log IC50 (pIC50) was 9.22.

With `Cc1cc(-c2cnc3c(NCCC(F)(F)F)cc(C4(c5cc(F)ccc5F)CC4)nn23)ccc1C(=O)NC1CC1`, the pIC50 is 9.10.

On to `Cc1cc(-c2cnc3c(NCCC(F)(F)F)cc(C(F)(F)c4cccc(F)c4F)nn23)ccc1C(=O)NC1CC1`, for which the pIC50 is 8.82.

With `Cc1cc(-c2cnc3c(NCCC(F)(F)F)cc(C(=O)c4cc(F)ccc4F)nn23)ccc1C(=O)NC1CC1`, the pIC50 is 9.22.

For `Cc1cc(-c2cnc3c(NCCC(F)(F)F)cc(C(F)c4cccc(F)c4)nn23)ccc1C(=O)NC1CC1` (configuration not stated), the pIC50 is 9.15.

Regarding `C=C(c1cc(NCCC(F)(F)F)c2ncc(-c3ccc(C(=O)NC4CC4)c(C)c3)n2n1)c1cc(F)ccc1O`, the pIC50 was 9.40.

For the compound `Cc1cc(-c2cnc3c(NCCC(F)(F)F)cc(C(O)c4cc(F)ccc4F)nn23)ccc1C(=O)NC1CC1` (configuration not stated), the pIC50 is 9.52.

Take `C=C(c1ccc(OC)cc1)c1cc(NCCC(F)(F)F)c2ncc(-c3ccc(C(=O)NC4CC4)c(C)c3)n2n1`: the pIC50 was 9.30.

Consider `C=C(c1cc(NCCC(F)(F)F)c2ncc(-c3ccc(C(=O)NC4CC4)c(C)c3)n2n1)c1cccc(F)c1F`, for which the pIC50 is 9.40.

In the case of `Cc1cc(-c2cnc3c(NCCC(F)(F)F)cc(C(=O)c4cccc(F)c4F)nn23)ccc1C(=O)NC1CC1`, the pIC50 was 9.22.

`COc1ccc(C(=O)c2cc(NCCC(F)(F)F)c3ncc(-c4ccc(C(=O)NC5CC5)c(C)c4)n3n2)cc1`: the pIC50 is 8.92.

As to `C=C(c1cccc(F)c1)c1cc(NCCC(F)(F)F)c2ncc(-c3ccc(C(=O)NC4CC4)c(C)c3)n2n1`, the pIC50 was 9.52.

Broadly, the pIC50 is −log10 of the IC50, conventionally taken in molar units.
